Experimental data published in PubChem BioAssay AID2060510 (Molecular Pharmacology Branch, DTP, NCI, 2025).

System: 439559-082-T-J2-PDC spheroids viability
Assay: Anticancer human tumor 439559-082-T-J2-PDC patient-derived colon adenocarcinoma cell line growth inhibition [GQUAD]
Settings: for IC50: curve of first compound; for viability, T/C: stronger effect = lower value
Method in brief: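 Tumor cells were grown as complex spheroids with HUVEC endothelial cells and mesenchymal stem cells as stroma. G-quadruplex stabilizers were combined with targeted agents over half-log dilutions from near the clinical Cmax, or from 10 microM.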

[1] = second compound 0.0316 µM, first compound 0.0316 µM
[2] = second compound 0.0316 µM, first compound 0.1 µM
[3] = second compound 0.0316 µM, first compound 0.316 µM
[4] = second compound 0.0316 µM, first compound 1 µM
[5] = second compound 0.0316 µM, first compound 3.16 µM
[6] = second compound 0.0316 µM, first compound 10 µM
[7] = second compound 0.1 µM, first compound 0.0316 µM
[8] = second compound 0.1 µM, first compound 0.1 µM
[9] = second compound 0.1 µM, first compound 0.316 µM
[10] = second compound 0.1 µM, first compound 1 µM
[11] = second compound 0.1 µM, first compound 3.16 µM
[12] = second compound 0.1 µM, first compound 10 µM
[13] = second compound 0.316 µM, first compound 0.0316 µM
[14] = second compound 0.316 µM, first compound 0.1 µM
[15] = second compound 0.316 µM, first compound 0.316 µM
[16] = second compound 0.316 µM, first compound 1 µM
[17] = second compound 0.316 µM, first compound 3.16 µM
[18] = second compound 0.316 µM, first compound 10 µM
[19] = second compound 1 µM, first compound 0.0316 µM
[20] = second compound 1 µM, first compound 0.1 µM
[21] = second compound 1 µM, first compound 0.316 µM
[22] = second compound 1 µM, first compound 1 µM
[23] = second compound 1 µM, first compound 3.16 µM
[24] = second compound 1 µM, first compound 10 µM
[25] = second compound 3.16 µM, first compound 0.0316 µM
[26] = second compound 3.16 µM, first compound 0.1 µM
[27] = second compound 3.16 µM, first compound 0.316 µM
[28] = second compound 3.16 µM, first compound 1 µM
[29] = second compound 3.16 µM, first compound 3.16 µM
[30] = second compound 3.16 µM, first compound 10 µM
[31] = second compound 10 µM, first compound 0.0316 µM
[32] = second compound 10 µM, first compound 0.1 µM
[33] = second compound 10 µM, first compound 0.316 µM
[34] = second compound 10 µM, first compound 1 µM
[35] = second compound 10 µM, first compound 3.16 µM
[36] = second compound 10 µM, first compound 10 µM
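Further: spheroids exposed to the agents for 7 days before readout.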
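Wherever viability, T/C is given: percent of luminescence signal in DMSO vehicle wells taken as 100% viability.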

`CC(=O)O[C@H]1C(=O)[C@@]2(C)[C@H]([C@H](OC(=O)c3ccccc3)[C@]3(O)C[C@H](OC(=O)[C@H](O)[C@@H](NC(=O)c4ccccc4)c4ccccc4)C(C)=C1C3(C)C)[C@]1(OC(C)=O)CO[C@@H]1C[C@@H]2O` + Cc1[nH]c2ccc(F)cc2c1-c1nc2c3cccnc3c3ncccc3c2[nH]1 showed an IC50 (second compound 0.0316 µM) of 0.343 µM, an IC50 (second compound 0.1 µM) of 0.406 µM and an IC50 (second compound 0.316 µM) of 0.436 µM. It also gave an IC50 (second compound 1 µM) of 0.402 µM, an IC50 (second compound 3.16 µM) of 0.385 µM and an IC50 (second compound 10 µM) of 0.298 µM. It also gave a viability, T/C [1] of 103%, a viability, T/C [2] of 81.4% and a viability, T/C [3] of 57.7%. The viability, T/C [4] was 4.13%, the viability, T/C [5] was 0.17% and the viability, T/C [6] was 0.27%. For the same compound, the viability, T/C [7] was 99%, the viability, T/C [8] was 96.2% and the viability, T/C [9] was 63.1%. The viability, T/C [10] was 2.41%, the viability, T/C [11] was 0.19% and the viability, T/C [12] was 0.28%. For the same compound, the viability, T/C [13] was 102%, the viability, T/C [14] was 87.5% and the viability, T/C [15] was 67.7%. For the same compound, the viability, T/C [16] was 5.02%, the viability, T/C [17] was 0.14% and the viability, T/C [18] was 0.29%. For the same compound, the viability, T/C [19] was 90.2%, the viability, T/C [20] was 82.3% and the viability, T/C [21] was 61.9%. For the same compound, the viability, T/C [22] was 6.01%, the viability, T/C [23] was 0.1% and the viability, T/C [24] was 0.41%. It also gave a viability, T/C [25] of 61.7%, a viability, T/C [26] of 76.5% and a viability, T/C [27] of 58.6%. For the same compound, the viability, T/C [28] was 6.91%, the viability, T/C [29] was 0.18% and the viability, T/C [30] was 0.37%. The viability, T/C [31] was 88.9%, the viability, T/C [32] was 63.2% and the viability, T/C [33] was 55.9%. The viability, T/C [34] was 9.43%, the viability, T/C [35] was 0.43% and the viability, T/C [36] was 0.5%.

With `CCCS(=O)(=O)Nc1ccc(F)c(C(=O)c2c[nH]c3ncc(-c4ccc(Cl)cc4)cc23)c1F` + Cc1[nH]c2ccc(F)cc2c1-c1nc2c3cccnc3c3ncccc3c2[nH]1 the IC50 (second compound 0.0316 µM) was 2.75 µM, the IC50 (second compound 0.1 µM) was 2.64 µM and the IC50 (second compound 0.316 µM) was 3.1 µM. For the same compound, the IC50 (second compound 1 µM) was 3.13 µM, the IC50 (second compound 3.16 µM) was 2.04 µM and the IC50 (second compound 10 µM) was 2.61 µM. It also gave a viability, T/C [1] of 108%, a viability, T/C [2] of 96.2% and a viability, T/C [3] of 103%. It also gave a viability, T/C [4] of 78.5%, a viability, T/C [5] of 46.5% and a viability, T/C [6] of 21.1%. It also gave a viability, T/C [7] of 104%, a viability, T/C [8] of 94.5% and a viability, T/C [9] of 95%. The viability, T/C [10] was 83.8%, the viability, T/C [11] was 43.5% and the viability, T/C [12] was 22.7%. It also gave a viability, T/C [13] of 105%, a viability, T/C [14] of 100% and a viability, T/C [15] of 89.8%. The viability, T/C [16] was 80.2%, the viability, T/C [17] was 47.6% and the viability, T/C [18] was 23%. The viability, T/C [19] was 108%, the viability, T/C [20] was 97.3% and the viability, T/C [21] was 90.4%. It also gave a viability, T/C [22] of 75.1%, a viability, T/C [23] of 48.6% and a viability, T/C [24] of 20.8%. The viability, T/C [25] was 78.7%, the viability, T/C [26] was 86% and the viability, T/C [27] was 79.5%. It also gave a viability, T/C [28] of 65.2%, a viability, T/C [29] of 40.5% and a viability, T/C [30] of 16.2%. It also gave a viability, T/C [31] of 81.2%, a viability, T/C [32] of 67.6% and a viability, T/C [33] of 71.5%. For the same compound, the viability, T/C [34] was 67.6%, the viability, T/C [35] was 46.1% and the viability, T/C [36] was 13.5%.

With `CC1COCCN1c1cc(C2(S(C)(=N)=O)CC2)nc(-c2ccnc3[nH]ccc23)n1` (stereo unspecified) + Cc1cnc(CNC(=O)c2c(=O)c3ccc(N4CCCN(C)CC4)nc3n3c2sc2ccccc23)cn1 the IC50 (second compound 0.0316 µM) was over 10 µM, the IC50 (second compound 0.1 µM) was over 10 µM and the IC50 (second compound 0.316 µM) was over 10 µM. It also gave an IC50 (second compound 1 µM) of over 10 µM, an IC50 (second compound 3.16 µM) of over 10 µM and an IC50 (second compound 10 µM) of over 10 µM. The viability, T/C [1] was 99.5%, the viability, T/C [2] was 86.3% and the viability, T/C [3] was 93.8%. For the same compound, the viability, T/C [4] was 89.6%, the viability, T/C [5] was 90.9% and the viability, T/C [6] was 69.9%. The viability, T/C [7] was 100%, the viability, T/C [8] was 94.4% and the viability, T/C [9] was 86.4%. It also gave a viability, T/C [10] of 85.5%, a viability, T/C [11] of 86.5% and a viability, T/C [12] of 61.8%. The viability, T/C [13] was 80.3%, the viability, T/C [14] was 78.3% and the viability, T/C [15] was 80.8%. The viability, T/C [16] was 81.5%, the viability, T/C [17] was 79.1% and the viability, T/C [18] was 60.9%. For the same compound, the viability, T/C [19] was 76.1%, the viability, T/C [20] was 65.2% and the viability, T/C [21] was 78.2%. For the same compound, the viability, T/C [22] was 75.5%, the viability, T/C [23] was 75.8% and the viability, T/C [24] was 65.6%. The viability, T/C [25] was 62%, the viability, T/C [26] was 74.5% and the viability, T/C [27] was 66.4%. For the same compound, the viability, T/C [28] was 71.3%, the viability, T/C [29] was 75.3% and the viability, T/C [30] was 55.7%. For the same compound, the viability, T/C [31] was 61.3%, the viability, T/C [32] was 59.1% and the viability, T/C [33] was 66.8%. It also gave a viability, T/C [34] of 60.8%, a viability, T/C [35] of 61.6% and a viability, T/C [36] of 49.2%.
